Source: publication PMC12298648, “An Evaluation of the Cytotoxicity and Safety Profile of Usnic Acid for a Broad Panel of Human Cancers and Normal Cells with Respect to Its Enantiospecificity” (Molecules, 2025)
Values after ≈ are worked out from the molar mass of the structure shown. Where two headings read alike, the source gives them in different places.

How the values were obtained:
HT29 = experiment: MTT viability assay, HT29 colon cancer cells; format: cell-based, human; settings: for Cell viability: HT29, 24 h; for IC50: Homo sapiens, HT-29
From the text: (§1) Cell lines of different origins were used in the study and grouped as follows: prostate panel (human prostate carcinomas: DU145, derived from metastatic site: brain; grade IV PC3, derived from metastatic site: bone; LNCaP, derived from the metastatic site: lymph node; prostate epithelial, PNT2), colon panel (colorectal adenocarcinomas: HT29, originating from a primary tumor; Duke’s type C DLD-1, with the potential to lymph node metastasis; highly metastatic HCT116; colon epithelial cells CCD 841 CoN), thyroid panel (follicular thyroid carcinoma FTC133, anaplastic thyroid carcinoma 8505C, papillary thyroid carcinoma TPC-1, normal thyroid follicular epithelial Nthy-ori 3–1), breast panel (ER-positive breast adenocarcinoma MCF7, ER-negative breast adenocarcinoma MDA-MB-231, breast epithelial MCF10A), brain panel (neuroblastoma SH-SY5Y, glioblastoma U-87 MG, murine astrocytes C8D1A). All cell lines were purchased from Merck (Darmstadt, Germany).
(§2) Cells were grown under standard conditions (37 °C, 5% CO2) and culture media (DMEM/F12 for PNT2, PC3, FTC133, 8505 C, MDA-MB-231, TPC-1; DMEM Low Glucose for DU145; DMEM High Glucose for HCT116, DLD-1, SH-SY5Y, U87MG, C8D1A; MEM with NEAA for MCF7; MEM for CCD 841 CoN; McCoy’s for HT29; RPMI1640 with sodium pyruvate for LNCaP; DMEM/F12 with 20 ng/mL epidermal growth factor (EGF), 10 μg/mL insulin, 0.5 μg/mL hydrocortisone, 100 ng/mL cholera toxin) for MCF10A), supplemented with 10% fetal bovine serum (FBS) or 5% donor horse serum for MCF10A, and 1% antibiotics solution (10,000 U penicillin and 10 mg streptomycin/mL). The tested substances were prepared as 10 mg/mL stock solutions in DMSO and further diluted in the culture media to the working concentrations. Cells were treated with UA enantiomers at the concentration range of 0–50 µg/mL. The influence of DMSO on cell viability was also examined, with the final concentration […], and no toxic effect was noted.
(§3) The cells were seeded onto 96-well plates at a density of 1.5 × 10^4 cells/well. After 24 h UA enantiomers were added. Cell viability was determined after 24, 48, and 72 h by the MTT assay, as described previously. Doxorubicin was used as a reference cytostatic drug. All analyses were performed in triplicate; cell viability was expressed as % of control, untreated cells (mean ± SD), and IC50 values (concentration at which cell viability is inhibited by 50%), if possible.

SH-SY5Y = experiment: MTT viability assay, neuroblastoma SH-SY5Y cells; format: cell-based, human; settings: SHSY5Y, 24 h
From the text: as §1, §2, §3

HCT116 cells = settings: cited from earlier work
DLD1 cells = settings: DLD1, 48 h, cited from earlier work
DU145 cells = settings: cited from earlier work
LNCaP cells = test system: LNCaP cells; parameters: method as in PMID 30101414; settings: 48 h, cited from earlier work
MDA-MB-231 cells = settings: cited from earlier work
U87MG cells = settings: cited from earlier work; for CC50: 24 h
[1] = test system: SH-SY5Y neuroblastoma cells; settings: cited from earlier work
A375 cells = test system: A375 cells; parameters: method as in PMID 34577645; settings: A375, 48 h; cited from earlier work
HTB140 cells = test system: HTB140 cells; parameters: method as in PMID 34577645; settings: HTB140, 48 h (implied); cited from earlier work
WM793 cells = test system: WM793 cells; parameters: method as in PMID 34577645; settings: WM793, 48 h; cited from earlier work
A172 = test system: A172; parameters: method as in PMID 34959693; settings: cited from earlier work
T98G = test system: T98G; parameters: method as in PMID 34959693; settings: cited from earlier work
HaCaT keratinocytes = test system: HaCaT keratinocytes; parameters: method as in PMID 34500657; settings: cited from earlier work
[2] = recalculated from µM by the authors
[3] = DU145, 72 h, recalculated from µM by the authors

## CC(=O)C1=C(O)C=C2Oc3c(C(C)=O)c(O)c(C)c(O)c3[C@@]2(C)C1=O [UA(+), (+)-usnic acid]
HT29; 2.5 µg/mL
  Cell viability: 103.23 % of control
HT29; 5 µg/mL
  Cell viability: 91.51 % of control
HT29; 10 µg/mL
  Cell viability: 88.42 % of control
HT29; 20 µg/mL
  Cell viability: 84.70 % of control
HT29; 30 µg/mL
  Cell viability: 77.54 % of control
HT29; 40 µg/mL
  Cell viability: 74.11 % of control
HT29; 50 µg/mL
  Cell viability: 72.56 % of control
HT29; HT29, 48 h
  IC50: > 50 µg/mL
HT29; HT29, 72 h
  IC50: > 50 µg/mL
SH-SY5Y; 2.5 µg/mL
  Cell viability: 99.49 % of control
SH-SY5Y; 5 µg/mL
  Cell viability: 97.56 % of control
SH-SY5Y; 10 µg/mL
  Cell viability: 97.95 % of control
SH-SY5Y; 20 µg/mL
  Cell viability: 96.15 % of control
SH-SY5Y; 30 µg/mL
  Cell viability: 95.77 % of control
SH-SY5Y; 40 µg/mL
  Cell viability: 92.95 % of control
SH-SY5Y; 50 µg/mL
  Cell viability: 96.54 % of control
HCT116 cells; HCT116, 48 h, recalculated from µM by the authors
  IC50: 34.4 µg/mL
HCT116 cells; HCT116, 48 h, read-out: IC50
  IC50: 100 µM
HCT116 cells; HCT116, 72 h, recalculated from µM by the authors
  IC50: 49.24 µg/mL
HCT116 cells; HCT116, 72 h, read-out: IC50
  IC50: 143 µM
DLD1 cells; [2]
  IC50: 34.4 µg/mL
DLD1 cells; read-out: IC50
  IC50: 100 µM
DU145 cells; DU145, 48 h, recalculated from µM by the authors
  IC50: 14.5 µg/mL
DU145 cells; DU145, 48 h, read-out: IC50
  IC50: 42.1 µM
DU145 cells; [3]
  IC50: 19.7 µg/mL
DU145 cells; DU145, 72 h, read-out: IC50
  IC50: 57.4 µM
LNCaP cells; read-out: IC50
  IC50: 77.5 µM
LNCaP cells; [2]
  IC50: 26.7 µg/mL
MDA-MB-231 cells; MDA-MB-231, 24 h, recalculated from µM by the authors
  IC50: 13.23 µg/mL
MDA-MB-231 cells; MDA-MB-231, 24 h, read-out: IC50
  IC50: 38.4 µM
MDA-MB-231 cells; MDA-MB-231, 72 h, recalculated from µM by the authors
  IC50: 4.5 µg/mL
MDA-MB-231 cells; MDA-MB-231, 72 h, read-out: IC50
  IC50: 13.1 µM
U87MG cells; read-out: CC50
  CC50: 47 µM
U87MG cells; [2]
  CC50: 16 µg/mL
U87MG cells; 48 h
  IC50: 41.5 µg/mL (≈ 121 µM)
[1]; at 2 µg/mL
  Cell viability: 42%
[1]; at 10 µg/mL
  Cell viability: 57%
A375 cells
  IC50: 11.84 µg/mL (≈ 34.4 µM)
HTB140 cells
  IC50: 14.72 µg/mL (≈ 42.8 µM)
WM793 cells
  IC50: 30.05 µg/mL (≈ 87.3 µM)

## CC(=O)C1=C(O)C=C2Oc3c(C(C)=O)c(O)c(C)c(O)c3[C@]2(C)C1=O [UA(−), (−)-usnic acid]
HT29; 2.5 µg/mL
  Cell viability: 102.45 % of control
HT29; 5 µg/mL
  Cell viability: 90.48 % of control
HT29; 10 µg/mL
  Cell viability: 84.03 % of control
HT29; 20 µg/mL
  Cell viability: 79.62 % of control
HT29; 30 µg/mL
  Cell viability: 74.37 % of control
HT29; 40 µg/mL
  Cell viability: 72.48 % of control
HT29; 50 µg/mL
  Cell viability: 73.95 % of control
HT29; HT29, 48 h
  IC50: > 50 µg/mL
HT29; HT29, 72 h
  IC50: 32.7 µg/mL (≈ 95 µM)
SH-SY5Y; 2.5 µg/mL
  Cell viability: 96.79 % of control
SH-SY5Y; 5 µg/mL
  Cell viability: 99.17 % of control
SH-SY5Y; 10 µg/mL
  Cell viability: 98.10 % of control
SH-SY5Y; 20 µg/mL
  Cell viability: 96.67 % of control
SH-SY5Y; 30 µg/mL
  Cell viability: 92.62 % of control
SH-SY5Y; 40 µg/mL
  Cell viability: 98.57 % of control
SH-SY5Y; 50 µg/mL
  Cell viability: 99.40 % of control
DU145 cells; [3]
  IC50: 15.8 µg/mL
DU145 cells; DU145, 72 h, read-out: IC50
  IC50: 45.9 µM
A172
  IC50: 31.5 µg/mL (≈ 91.5 µM)
T98G
  IC50: 13 µg/mL (≈ 37.8 µM)
WM793 cells
  IC50: 52.09 µg/mL (≈ 151 µM)
HaCaT keratinocytes; 48 h
  IC50: 80.82 µg/mL (≈ 235 µM)
HaCaT keratinocytes; 72 h
  IC50: 70.12 µg/mL (≈ 204 µM)
